Experimental data as given in paper PMC5652740, “Inhibition of HIV-1 infection in humanized mice and metabolic stability of protein phosphatase-1-targeting small molecule 1E7-03” (Oncotarget, 2017).

Key:
[1] = 1E7-03 degradation in ferret plasma; type: in vitro ADME; conditions: 37°C
Experimental: 1E7-03 dissolved in DMSO (10 mM stock solution) was mixed with mouse plasma (Sigma-Aldrich), guinea pig plasma (Sigma-Aldrich), ferret plasma (BioreclamationIVT), monkey plasma (courtesy of Binhua Ling, PhD, Tulane University) and human plasma (collected from heathy volunteer by the Center for Sickle Cell Disease at Howard University) to the final concentration of 10 μM and incubated at 37°C. Aliquots were collected at different time points for up to 24 hrs. The resulting sample (60 μl) was mixed with 240 μl of cold acetone, vortexed for 2 min, kept at –20°C for 30 min, and then the precipitated protein was removed by centrifugation at 13,000 × g for 5 min. The supernatant was transferred to a clean test tube and evaporated to dryness using a SpeedVac concentrator. The residue reconstituted in 60 μl of acetonitrile for LC/FT-MS analysis. All experiments were run parallel in triplicates.

[2] = Stability of 1E7-03 in cell culture media and PBS; type: physicochemical
Experimental: CEM T cells were seeded in 24-well plates (200,000 cells/well). On the next day cells were treated with 10 μM 1E7-03. Media (100 μl) was collected at different time points during 48 hrs and total protein was precipitated by 400 μl of cold acetone and centrifuged at 13,000 × g for 5 min. The supernatant was collected and evaporated to dryness using a SpeedVac concentrator. The dry pellet was reconstituted in 100 μl of acetonitrile for LC/FT-MS analysis. In addition, 1E7-03 (10 μM) was incubated at 37°C in serum-free media and complete media without cell treatment. Media of 100 μl was collected after 24 hrs of incubation. The stabilities of 1E7-03 (10 μM) at phosphate buffered saline (PBS) and PBS with the addition of 10% bovine serum albumin were also investigated at 37°C incubation. Samples (100 μl) were collected at different time points up to 24 hrs. All samples were prepared by the same above-mentioned procedure for LC/FT-MS analysis.

[3] = tested on: PP1 regulatory subunit Sds22; experiment: Label free quantitative proteomics of HIV-1 infected CEM T cells; type: cell-based; conditions: 10 μM, SIEVE quantification
Experimental: CEM T cells were infected with VSVG-pseudotyped pNL4-3.Luc.R-E-virus (HIV-1-LUC-G) and cultured in 100 mm culture plates (1.25 × 10^6 cells/ml) containing 10 ml of supplemented RPMI media at 37°C and 5% CO2. The cells were treated with 10 μM of 1E7-03 or vehicle (DMSO) and incubated overnight. Cells were collected and washed three times with PBS. To obtain cell lysates, the cells were suspended in 1 ml cold whole cell lysis buffer (50 mM Tris-HCl, pH 7.5, 0.5 M NaCl, 1% NP-40, 0.1% SDS) with protease and phosphatase inhibitors (P044-1ML, Sigma Aldrich). The cytosolic protein fraction was isolated by centrifugation at 13,000xg for 30 min at 4 °C to remove cellular debris. […]
Tryptic peptides were purified by Pierce™ Graphite Spin Columns following manufacturer's instructions, resuspended in water with 0.1% formic acid (v/v) and analyzed by an LTQ Orbitrap XL mass spectrometer (Thermo Fisher Scientific) coupled to a Prominence Nano LC (Shimadzu) using the Xcalibur version 2.7.0 (Thermo Scientific). […]
LC-MS/MS raw data were searched by Proteome Discoverer 1.4 using Sequest search engine (Thermo Fisher Scientific), against the Uniprot Human database (6/10/2016, 135431 sequences) at a false discovery cut off ≤1%. […] The label-free quantification of peptides eluting between 10 and 80 min was performed with SIEVE 2.1 software (Thermo Scientific). […]

CEM T cells = experiment: Cytotoxicity with calcein-AM; type: cell-based; conditions: in words
Experimental: To assess cytotoxicity with calcein, media was removed and the cells washed with PBS in order to remove serum esterase activity that may cause an increase in fluorescence through the hydrolysis of calcein-AM. Cells were then supplemented with 0.2 μM calcein-AM (Molecular Probes, Invitrogen) for 10 min at 37°C. Fluorescence was measured using the luminescence spectrometer described above implementing 495 nm excitation and 515 nm emission filters.

SMILES | remaining at 24 h, 10 µM [1] | Peak Area (%), Complete media ([2]; 10 μM 1E7-03 in media with 10% FBS, 37°C, 24 hrs, 1E7-03 remaining and DPs formed) | Peak Area (%), FBS free media ([2]; 10 μM 1E7-03 in serum free media, 37°C, 24 hrs, 1E7-03 remaining and DPs formed) | stability in complete media ([2]; 10 μM, 37°C, 48 hrs, in words) | remaining at 4 h, 10 µM ([2]; PBS with 10% bovine serum albumin, 4 hrs, read-out: % remaining intact in PBS with 10% BSA) | remaining at 24 h, 10 µM ([2]; PBS with 10% bovine serum albumin, 24 hrs, read-out: % remaining in PBS with 10% BSA) | % of compound degraded in PBS ([2]; PBS, 37°C, 4 hrs) | remaining at 48 h, 10 µM ([2]; human, culture media of CEM T cells, 48 hrs of incubation, read-out: % remained intact in cell culture media) | Sds22 Ratio 1E7-03/Control [3] | α-tubulin Ratio 1E7-03/Control [3] | toxicity in CEM T cells compared to 1E7-03 (CEM T cells)
CCNC(=O)NC(=O)C(C)OC(=O)c1c2c(nc3ccccc13)/C(=C/c1ccc(OC)c(OC)c1)CC2 (centres unmarked) [1E7-03] | > 50% | 98.6% | 7% | remained stable and did not undergo degradation | 75% | > 50% | over 80% | > 90% | 0.804 | 0.936 | 
COc1ccc(/C=C2\CCCc3c2nc2ccccc2c3C(=O)OC(C)C(=O)OC(C)(C)C)cc1OC (centres unmarked) [DP1-07] |  |  |  |  |  |  |  |  |  |  | reduced toxicity
